# Laboratory results as given in US20230097992A1, “BIVALENT EGF FUSION TOXINS” (The Regents of the University of Colorado, a body corporate, priority 2020, published 2023).
# Values joined by “and” are separate entries in the source; they are usually repeats but may differ in a detail not shown here. Equal values may be shown once.
# Tests used:
# [1] = system: HNSCC Cal27 cells injected intravenously (lung metastases); assay: Experimental lung metastasis NSG mouse model; assay type: in vivo, NSG mice; details: for Median survival time: Lung metastasis model, fusion toxin or DT390 50 μg/kg IP, erlotinib 20 mg/kg gavage, once daily for 10 days from day 4
# Procedure: FIG. 8A-C presents data from in vivo efficacy analysis of the human EGF fusion toxins using an experimental lung metastasis NSG mouse model. FIG. 8A presents data from a first animal study for survival curve analysis. NSG mice were IV injected with one million human EGFR^+ HNSCC Cal27 cells on day 0. Mice were injected intraperitoneally (IP) with the EGF fusion toxin or DT390 at 50 μg/kg, once daily for 10 consecutive days starting on day 4 after the tumor cell injection. […] The schedule of the fusion toxin and tumor cell injection is pictured in the schematic below the survival curve. The vertical arrows indicate the days on which the tumor cells or the fusion toxins were injected. *P<0.05; **P<0.01; ***P<0.001; ****P<0.0001. The P-values for the survival curves were calculated using the Mantel-Cox log-rank test (GraphPad Prism9.0).
# FIGS. 8B and C present data from a second animal study for a pathology analysis. […] The mice were euthanized on day 10 after tumor cell injection when the first mouse in the DT390 group reached the end point. FIG. 8B presents H&E pictures of lung metastases. Metastases are indicated in the upper panels by black arrowheads. Scale bar: 500 μm. The lower panels are higher magnification pictures of the area in black rectangles in the upper panels. […] Error bars indicate standard deviation (SD).
# (§1) HNSCC tumor cells were injected via the following routes: 1) Flank-xenograft solid tumor model: eight million human HNSCC Cal27 tumor cells were subcutaneously injected into the right flank at day 0. The tumor-bearing mice were randomly divided into the four experimental groups when the tumors were palpable at day 3. The tumor volume was measured using digital vernier calipers every 3 days and calculated according to the formula: volume (mm^3)=(length×width×width)/2. 2) Tongue-orthotopic solid tumor model: eight million human HNSCC Cal27 tumor cells in 50 μl DMEM were injected into the tongue at day 0 following isoflurane anesthesia and the tumor-bearing mice were randomly divided into the planned four experimental groups at day 3. 3) Experimental metastasis model: one million human HNSCC Cal27 tumor cells in 200 μl DMEM were intravenously injected at day 0 via tail vein and the tumor-bearing mice were randomly divided into the four experimental groups at day 3.
# (§2) Mono-EGF-IT (mEGF-IT), bEGF-IT, or DT390 was intraperitoneally injected (IP) starting at day 4 at 50 μg/kg, once daily for 10 consecutive days. […] The injected animals were observed daily for signs and symptoms of illness and scored at least twice weekly based on the parameters as previously reported (Peraino et al. (2013), J. Immunol. Methods 398-399, 33-43, which is hereby incorporated by reference in its entirety; Wang et al., 2015). The animals were humanely euthanized when the score exceeded the limit or the animal lost more than 15% of its pre-injection body weight. In addition, to assess whether the fusion toxins are toxic to the animals, NSG mice injected with the fusion toxins only were also included as control.
# The third in vivo efficacy model was an experimental metastasis model. One million of HNSCC Cal27 tumor cells were intravenously injected via the tail vein of NSG mice at day 0. The EGF fusion toxins were injected intraperitoneally (IP) starting on day 4 at 50 μg/kg daily for 10 consecutive days. […] To further assess the effects of the fusion toxins on metastasis, the experimental metastasis study was repeated with a second cohort of NSG mice, and all mice were euthanized 10 days after tumor cell inoculation, when the first mouse in the DT390 group reached the end point. The data are depicted in FIGS. 8B and C.
# [2] = system: HNSCC Cal27 subcutaneous xenografts; assay: Flank-xenograft solid tumor-bearing NSG mouse model; assay type: in vivo, NSG mice; details: Subcutaneous xenograft model; fusion toxin or DT390 50 μg/kg IP, erlotinib 20 mg/kg gavage, once daily for 10 days from day 4
# From the text: FIGS. 6A-6D presents the data from in vivo efficacy analysis of the human EGF fusion toxins against subcutaneous xenografts in NSG mice from two animal studies. FIG. 6A depicts the survival curve for NSG mice injected with Cal27 cells. […] FIGS. 6B-D depict tumor volume and weight data from the second study performed with a second cohort of NSG mice. […] Mice were euthanized on day 14 after tumor cell injection, when the first mouse in the DT390 group reached the end point. FIG. 6B: Tumor volumes were measured periodically, and the growth kinetics of the four groups were plotted. FIG. 6B depicts the tumor growth kinetics for a period of 14 days. FIG. 6C presents a bar graph representing the tumor weights at day 14. FIG. 6D depicts images of harvested tumors on day 14. Scale bar: 1 cm. FIGS. 6A-6C: *P<0.05; **P<0.01; ***P<0.001; ****P<0.0001; ns: not significant. The P-values for the survival curves in FIG. 6A were calculated using the Mantel-Cox log-rank test and that for the comparisons in FIGS. 6B and C were calculated using the two-tailed Student t-test (GraphPad Prism 9.0.0).
# as §1, §2
# In vivo efficacy of the mEGF-IT and bEGF-IT against HNSCC was assessed using three immunodeficient tumor-bearing NSG mouse models. The first in vivo efficacy model was a flank-xenograft solid tumor-bearing NSG mouse model. Eight million Cal27 tumor cells were injected subcutaneously (SQ) into the right flank at day 0. The EGF fusion toxins were injected intraperitoneally (IP) starting on day 4 at 50 μg/kg daily for 10 consecutive days. […] The reduction of the tumor volumes, weights and sizes (FIGS. 6B-6D) were all consistent with the median survival prolongation.
# [3] = system: HNSCC Cal27 tongue-orthotopic tumors; assay: Tongue-orthotopic tumor-bearing NSG mouse model; assay type: in vivo, NSG mice; details: Tongue orthotopic model; fusion toxin or DT390 50 μg/kg IP, erlotinib 20 mg/kg gavage, once daily for 10 days from day 4
# Procedure: FIGS. 7A-7C presents the data from two animal studies of in vivo efficacy analysis of the human EGF fusion toxins against tongue squamous cell carcinomas (SCCs) in NSG mice. FIG. 7A presents the data from in vivo efficacy analysis of the human EGF fusion toxins using human EGFR-positive HNSCC Cal27 tongue-orthotopic tumor-bearing NSG mouse model. Eight million human EGFR-positive HNSCC Cal27 cells were injected into the tongue on day 0. Mice were injected intraperitoneally (IP) with the EGF fusion toxin or DT390 at 50 μg/kg, starting on day 4, once daily for 10 consecutive days. […] The schedule of the fusion toxin and tumor cell injection is pictured in the schematic below the survival curve. The vertical arrows indicate the days on which the tumor cells or the fusion toxins were injected. *P<0.05; **P<0.01; ***P<0.001; ****P<0.0001; ns: not significant.
# FIG. 7B presents the data from a further in vivo efficacy analysis of the human EGF fusion toxins. […] The mice were euthanized on day 8 after tumor cell injection when the first mouse in the DT390 group reached the end point. The photograph depicts tongue squamous cell carcinomas (SCCs) (circled by the black dotted lines). Scale bar: 1 cm. FIG. 7C presents the FIG. 7B tumor volume comparison of the treatment groups. *P<0.05; **P<0.01
# as §1, §2
# To assess the in vivo efficacy of the human EGF fusion toxins to the xenograft tumors in the head and neck area, a tongue-orthotopic tumor-bearing NSG mouse model was used as a second efficacy model. Eight million HNSCC Cal27 cells were injected into the tongue at day 0. The EGF fusion toxins were injected intraperitoneally (IP) starting on day 4 at 50 μg/kg daily for 10 consecutive days. Since the resulting tongue-orthotopic tumors severely affected the animal's eating and drinking, animals were euthanized earlier. Therefore, the median survival prolongation was not as impressive as that observed in the flank-xenograft solid tumor-bearing NSG mouse model. […] To further characterize the effect of the EGF fusion toxins on tumor volume, the orthotopic tongue SCC model study was repeated, and the mice were euthanized 8 days after tumor cell inoculation.
# [4] = system: 14 EGFR+ HNSCC cells lines; assay: Flow cytometry binding, all 14 EGFR+ HNSCC cell lines together; set-up: species or system human; details: mean over the 14 EGFR+ HNSCC cell lines
# NSG mice = assay: In vivo off-target toxicity in NSG mice
# From the text: FIGS. 12A-C presents representative images of necropsy results for NSG mice treated with mono-EGF-IT or bi-EGF-IT without tumor cell injection. Mice were euthanized on day 13 after the first injection of the fusion toxins. The images show representative gross changes observed in the ear (FIG. 12A), liver (FIG. 12C) and gastrointestinal tract of a representative NSG mouse treated with mono-EGF-IT compared to a representative NSG mouse treated with bi-EGF-IT.
# as §2
# The main side effects of targeting EGFR are caused by off-target effects, because EGFR is expressed in many healthy tissues, include skin, liver, and gastrointestinal tract (Widakowich et al., (2007), Oncologist, 12, 1443-1455). […] To further assess these toxic effects, another in vivo toxicity study in non-tumor-bearing mice was performed. NSG mice were treated with mono-EGF-IT or bi-EGF-IT, without tumor cell injection.
# [5] = non-tumor-bearing NSG mice, 13 days after the first injection
substance,measurement,setting,value
DT390,Median survival time,[1],8.5 days
same,Median survival time,[2],14 days and 13 days
same,Median survival time,[3],10 days
"Mono-EGF IT: DT390 joined by G4S to one human EGF domain, C-terminal 6×His tag; SEQ ID NO: 15",Median survival time,[1],32 days
same,number of metastases in the lungs,"[1]; second cohort, euthanized 10 days after tumor cell inoculation",reduced compared with the DT390-negative control group
same,Median survival time,[2],14 days
same,Kd,[4],12.2 nM
same,Median survival time,[3],11 days
same,adverse effects observed in treated mice,NSG mice; mice of the efficacy studies,generally unhealthy and lethargic and developed skin rashes
same,general condition and skin,NSG mice; non-tumor-bearing NSG mice,generally unhealthy and lethargic with skin rashes
same,"necropsy, gastrointestinal tract",NSG mice; [5],mildly pale with scant ingesta in the stomach or cecum
same,"necropsy, liver",NSG mice; [5],diffuse pale livers with moderate reticular patterns
